From PubChem BioAssay (NCI)
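Interpolation was linear, between the two tested concentrations surrounding the appropriate level; five concentrations were tested over 48 hours in 96-well plates. The concentration for full growth arrest is given as TGI.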

What was measured:
Test in all cases: inhibition of tumour cell growth, NCI panel, 48 h
NCI/ADR-RES ovarian = tested on: NCI/ADR-RES ovarian
HS 578T breast = tested on: HS 578T breast
MDA-MB-231 breast = tested on: MDA-MB-231 breast
XF 498 CNS = tested on: XF 498 CNS
DMS 114 small cell lung = tested on: DMS 114 small cell lung
SNB-78 CNS = tested on: SNB-78 CNS
RXF-631 renal = tested on: RXF-631 renal

Compound: CC(=S)NC1C(Oc2ccc3c(C)cc(=O)oc3c2)OC(CO)C(O)C1O (centres undefined)
- TGI (NCI/ADR-RES ovarian): > 100 µM
- TGI (HS 578T breast): > 100 µM
- TGI (MDA-MB-231 breast): > 100 µM

Compound: CC(C)OP(=O)(OC(C)C)c1ncn(-c2ccc([N+](=O)[O-])cc2)n1
- TGI (XF 498 CNS): > 100 µM
- TGI (DMS 114 small cell lung): > 100 µM

Compound: C[Si](C)(C)C1=C2C(=O)c3ccccc3C(=O)C2=C([Si](C)(C)C)[C@@H]2CCCC[C@H]12
- TGI (MDA-MB-231 breast): > 100 µM

Compound: CN1C(=N\S(=O)(=O)c2ccc(Cl)cc2)/C(=N/N=P(c2ccccc2)(c2ccccc2)c2ccccc2)c2ccccc21
- TGI (XF 498 CNS): > 100 µM
- TGI (SNB-78 CNS): > 100 µM
- TGI (RXF-631 renal): > 100 µM
